Measurements reported in patent US8426408B2, “Pyrimidine inhibitors of kinases” (AbbVie Inc., priority 2009, dated 2013).

How the values were obtained:
Aurora A = biological target: T1, Aurora A (Homo sapiens, UniProt O14965); experiment: Aurora A enzyme inhibition (time-resolved fluorescence, STK substrate-2); type: biochemical; conditions: 1 mM ATP
T1 sequence (O14965 1-403): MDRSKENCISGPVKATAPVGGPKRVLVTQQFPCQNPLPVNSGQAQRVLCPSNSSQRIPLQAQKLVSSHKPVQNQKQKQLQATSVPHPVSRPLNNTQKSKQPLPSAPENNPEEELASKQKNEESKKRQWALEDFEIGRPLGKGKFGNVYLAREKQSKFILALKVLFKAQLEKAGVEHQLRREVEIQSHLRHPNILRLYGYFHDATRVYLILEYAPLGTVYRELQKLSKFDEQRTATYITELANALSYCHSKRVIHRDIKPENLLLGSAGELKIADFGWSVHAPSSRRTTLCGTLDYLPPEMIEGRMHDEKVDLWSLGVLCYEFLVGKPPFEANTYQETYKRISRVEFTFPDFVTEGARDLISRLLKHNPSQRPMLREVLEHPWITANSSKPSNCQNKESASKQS
How it was run: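 Phosphorylation of biotinylated STK substrate-2 at 1 mM ATP, 1 h, Hepes buffer pH 7.4 (MgCl2, sodium orthovanadate, Triton X-100). After EDTA quench, 665/615 nm time-resolved fluorescence ratio read via europium anti-phospho antibody and SA-XL665; IC50 from exponential fit versus inhibitor concentration.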

NCI-H1299 cells = experiment: Induction of polyploidy in H1299; type: cell-based, Human; conditions: NCI-H1299, 48 hours
Description: To determine the induction of polyploidy in H1299 cells, NCI-H1299 were seeded (4K/well) into 96-well culture plates (tissue culture grade, black, flat-clear bottom) and incubated overnight to produce cell-to-plate adherence. Inhibitors at varying concentrations were added into duplicate wells containing cells and culture media (RPMI 1640, 10% fetal calf serum) and incubated at 37 C for 48 hours. The plates were then washed with PBS and the adherent cells fixed by incubating with 3% formalin for 1 hour. After washing four times with PBS, the cells were then stained with Hoechst and subjected to fluorescent (360 i/460e) microscopic high content analysis to determine the effect of inhibitors on nuclear size. Polyploid cells (≧4N) were defined as those having nuclear area>750μ^2. Potency was expressed as the concentration of inhibitor necessary to induce polyploidy in 15% of cells (EC15) and was calculated from least squares analysis of the log dose-response.

Ki (Aurora A) [nM]	SMILES	EC15 (concentration of inhibitor necessary to induce polyploidy in 15% of cells) (NCI-H1299 cells)
< 100	Cn1cc(Nc2ncc(C(F)(F)F)c(N[C@@H]3[C@H](C(N)=O)[C@H]4C=C[C@@H]3C4)n2)cn1.Cn1cc(Nc2ncc(C(F)(F)F)c(N[C@H]3[C@@H](C(N)=O)[C@@H]4C=C[C@H]3C4)n2)cn1 (mixture of isomers) [Example 10, (1S,2S,3R,4R)-3-{[2-[(1-methyl-1H-pyrazol-4-yl)amino]-5-(trifluoromethyl)pyrimidin-4-yl]amino}bicyclo[2.2.1]hept-5-ene-2-carboxamide and (1R,2R,3S,4S)-3-{[2-[(1-methyl-1H-pyrazol-4-yl)amino]-5-(trifluoromethyl)pyrimidin-4-yl]amino}bicyclo[2.2.1]hept-5-ene-2-carboxamide]	A (“A” represents an EC15 of less than 0.1 μM)
< 100	CC(O)Cn1cc(Nc2ncc(C(F)(F)F)c(NC3C4C=CC(C4)C3C(N)=O)n2)cn1 (mixture of isomers) [Example 19, (1R,2R,3S,4S)-3-{[2-({1-[(2R)-2-hydroxypropyl]-1H-pyrazol-4-yl}amino)-5-(trifluoromethyl)pyrimidin-4-yl]amino}bicyclo[2.2.1]hept-5-ene-2-carboxamide and (1S,2S,3R,4R)-3-{[2-({1-[(2R)-2-hydroxypropyl]-1H-pyrazol-4-yl}amino)-5-(trifluoromethyl)pyrimidin-4-yl]amino}bicyclo[2.2.1]hept-5-ene-2-carboxamide]	A (“A” represents an EC15 of less than 0.1 μM)
< 100	Cn1cc(Nc2ncc(C(F)(F)F)c(N[C@@H]3[C@@H]4CC[C@@H](C4)[C@@H]3C(N)=O)n2)cn1.Cn1cc(Nc2ncc(C(F)(F)F)c(N[C@H]3[C@H]4CC[C@H](C4)[C@H]3C(N)=O)n2)cn1 (mixture of isomers) [Example 20, (1S,2S,3R,4R)-3-{[2-[(1-methyl-1H-pyrazol-4-yl)amino]-5-(trifluoromethyl)pyrimidin-4-yl]amino}bicyclo[2.2.1]heptane-2-carboxamide and (1R,2R,3S,4S)-3-{[2-[(1-methyl-1H-pyrazol-4-yl)amino]-5-(trifluoromethyl)pyrimidin-4-yl]amino}bicyclo[2.2.1]heptane-2-carboxamide]	A (“A” represents an EC15 of less than 0.1 μM)
< 100	CC(O)Cn1cc(Nc2ncc(C(F)(F)F)c(NC3C4CCC(C4)C3C(N)=O)n2)cn1 (mixture of isomers) [Example 21, (1S,2R,3S,4R)-3-{[2-({1-[(2R)-2-hydroxypropyl]-1H-pyrazol-4-yl}amino)-5-(trifluoromethyl)pyrimidin-4-yl]amino}bicyclo[2.2.1]heptane-2-carboxamide and (1R,2S,3R,4S)-3-{[2-({1-[(2R)-2-hydroxypropyl]-1H-pyrazol-4-yl}amino)-5-(trifluoromethyl)pyrimidin-4-yl]amino}bicyclo[2.2.1]heptane-2-carboxamide]	A (“A” represents an EC15 of less than 0.1 μM)
< 100	CCn1cc(Nc2ncc(C(F)(F)F)c(N[C@@H]3[C@H](C(N)=O)[C@H]4C=C[C@@H]3C4)n2)cn1.CCn1cc(Nc2ncc(C(F)(F)F)c(N[C@H]3[C@@H](C(N)=O)[C@@H]4C=C[C@H]3C4)n2)cn1 (mixture of isomers) [Example 22, (1S,2S,3R,4R)-3-{[2-[(1-ethyl-1H-pyrazol-4-yl)amino]-5-(trifluoromethyl)pyrimidin-4-yl]amino}bicyclo[2.2.1]hept-5-ene-2-carboxamide and (1R,2R,3S,4S)-3-{[2-[(1-ethyl-1H-pyrazol-4-yl)amino]-5-(trifluoromethyl)pyrimidin-4-yl]amino}bicyclo[2.2.1]hept-5-ene-2-carboxamide]	A (“A” represents an EC15 of less than 0.1 μM)
< 100	CCn1cc(Nc2ncc(C(F)(F)F)c(N[C@@H]3[C@H]4CC[C@H](C4)[C@@H]3C(N)=O)n2)cn1.CCn1cc(Nc2ncc(C(F)(F)F)c(N[C@H]3[C@@H]4CC[C@@H](C4)[C@H]3C(N)=O)n2)cn1 (mixture of isomers) [Example 24, (1R,2S,3R,4S)-3-{[2-[(1-ethyl-1H-pyrazol-4-yl)amino]-5-(trifluoromethyl)pyrimidin-4-yl]amino}bicyclo[2.2.1]heptane-2-carboxamide and (1S,2R,3S,4R)-3-{[2-[(1-ethyl-1H-pyrazol-4-yl)amino]-5-(trifluoromethyl)pyrimidin-4-yl]amino}bicyclo[2.2.1]heptane-2-carboxamide]	A (“A” represents an EC15 of less than 0.1 μM)
< 100	CCn1cc(Nc2ncc(Br)c(N[C@@H]3[C@H](C(N)=O)[C@H]4C=C[C@@H]3C4)n2)cn1.CCn1cc(Nc2ncc(Br)c(N[C@H]3[C@@H](C(N)=O)[C@@H]4C=C[C@H]3C4)n2)cn1 (mixture of isomers) [Example 31, (1S,2S,3R,4R)-3-({5-bromo-2-[(1-ethyl-1H-pyrazol-4-yl)amino]pyrimidin-4-yl}amino)bicyclo[2.2.1]hept-5-ene-2-carboxamide and (1R,2R,3S,4S)-3-({5-bromo-2-[(1-ethyl-1H-pyrazol-4-yl)amino]pyrimidin-4-yl}amino)bicyclo[2.2.1]hept-5-ene-2-carboxamide]	A (“A” represents an EC15 of less than 0.1 μM)
< 100	Cn1cc(Nc2ncc(Cl)c(N[C@@H]3[C@@H]4CC[C@@H](C4)[C@@H]3C(N)=O)n2)cn1.Cn1cc(Nc2ncc(Cl)c(N[C@H]3[C@H]4CC[C@H](C4)[C@H]3C(N)=O)n2)cn1 (mixture of isomers) [Example 113, (1R,2R,3S,4S)-3-({5-chloro-2-[(1-methyl-1H-pyrazol-4-yl)amino]pyrimidin-4-yl}amino)bicyclo[2.2.1]heptane-2-carboxamide and (1S,2S,3R,4R)-3-({5-chloro-2-[(1-methyl-1H-pyrazol-4-yl)amino]pyrimidin-4-yl}amino)bicyclo[2.2.1]heptane-2-carboxamide]	A (“A” represents an EC15 of less than 0.1 μM)
< 100	CCn1cc(Nc2ncc(Cl)c(N[C@@H]3[C@@H]4CC[C@@H](C4)[C@@H]3C(N)=O)n2)cn1.CCn1cc(Nc2ncc(Cl)c(N[C@H]3[C@H]4CC[C@H](C4)[C@H]3C(N)=O)n2)cn1 (mixture of isomers) [Example 114, (1R,2R,3S,4S)-3-({5-chloro-2-[(1-ethyl-1H-pyrazol-4-yl)amino]pyrimidin-4-yl}amino)bicyclo[2.2.1]heptane-2-carboxamide and (1S,2S,3R,4R)-3-({5-chloro-2-[(1-ethyl-1H-pyrazol-4-yl)amino]pyrimidin-4-yl}amino)bicyclo[2.2.1]heptane-2-carboxamide]	A (“A” represents an EC15 of less than 0.1 μM)
< 100	CCn1cc(Nc2ncc(Cl)c(N[C@@H]3[C@H](C(N)=O)[C@@H]4C=C[C@H]3C4)n2)cn1.CCn1cc(Nc2ncc(Cl)c(N[C@H]3[C@@H](C(N)=O)[C@H]4C=C[C@@H]3C4)n2)cn1 (mixture of isomers) [Example 121, (1S,2R,3S,4R)-3-({5-chloro-2-[(1-ethyl-1H-pyrazol-4-yl)amino]pyrimidin-4-yl}amino)bicyclo[2.2.1]hept-5-ene-2-carboxamide and (1R,2S,3R,4S)-3-({5-chloro-2-[(1-ethyl-1H-pyrazol-4-yl)amino]pyrimidin-4-yl}amino)bicyclo[2.2.1]hept-5-ene-2-carboxamide]	A (“A” represents an EC15 of less than 0.1 μM)
< 100	NC(=O)[C@@H]1CCC[C@@H]1Nc1nc(Nc2cnn(C3CCNCC3)c2)ncc1Cl.NC(=O)[C@H]1CCC[C@H]1Nc1nc(Nc2cnn(C3CCNCC3)c2)ncc1Cl (mixture of isomers) [Example 136, (1S,2R)-2-[(5-chloro-2-{[1-(piperidin-4-yl)-1H-pyrazol-4-yl]amino}pyrimidin-4-yl)amino]cyclopentanecarboxamide and (1R,2S)-2-[(5-chloro-2-{[1-(piperidin-4-yl)-1H-pyrazol-4-yl]amino}pyrimidin-4-yl)amino]cyclopentanecarboxamide]	A (“A” represents an EC15 of less than 0.1 μM)
